According to patent publication US6555702B2, “Protein kinase inhibitor” (Calyx Therapeutics, Inc., priority 1997, dated 2003):
“Also recorded” adds a separate entry of the source.

Legend:
Solubility (Table A) = format: physicochemical; details: solvents in which the compound is soluble
NOD mice = assay: Hypoglycemic effect in non-obese diabetic (NOD) mice; format: in vivo, mouse; details: daily oral administration, treatment mode, vs vehicle; FIG. 5
Procedure: The hypoglycemic effect of Compound 2 (water-soluble analog of A1) was evaluated in the treatment mode in non-obese diabetic (NOD) mice.

[1] = tested on: IL 12 secretion by splenic macrophages; assay: IL 12 secretion by LPS-stimulated splenic macrophages; format: cell-based; details: mouse splenic macrophages, 5 ug/ml LPS, varying doses, 72 hr; FIG. 1A
Procedure: The effects of these three tyrphostins on the secretion of pro-inflammatory cytokines from macrophages were compared. Mouse splenic macrophages were stimulated with 5 ugh/ml lipopolysaccharide (LPS) and treated with varying doses of tyrphostins. The cells were cultured for 72 hr and the amount of IL 12 and nitric oxide was measured. […] Similar results were obtained with respect to nitric oxide levels, with tyrphostin A1 (FIG. 1B) showing good results.

[2] = tested on: mitogen stimulated splenic T cells; assay: T cell proliferation induced by IL 12; format: cell-based, mouse; details: stimulated with 10 U/ml IL 12
septic shock = details: background statement; cited from earlier work
[3] = tested on: mitogen stimulated splenic T cells; assay: T cell proliferation induced by IL 2; format: cell-based, mouse; details: stimulated with 1 U/ml IL 2
leukemic cells = details: acute lymphoblastic leukemia; background statement; cited from earlier work

| SOLUBILITY (Solubility (Table A)) | Structure (SMILES) | inhibition of IL 12 secretion [1] | inhibition of T cell proliferation [2] | inhibition of T cell proliferation [3] | also measured |
| --- | --- | --- | --- | --- | --- |
| Water | N#CC(C#N)=Cc1ccc(C(=O)[O-])cc1.[Na+] [Compound 2, Sodium 1-cyano-3-(4-carboxy-phenyl)-acrylonitrile] | – | – | – | effect on blood glucose level (NOD mice): significant effect on blood glucose level; also recorded: lowering blood glucose level |
| Water | N#CC(C#N)=Cc1ccc(OCC(=O)[O-])cc1.[Na+] [Compound 5] | – | – | – | – |
| Chloroform Ethanol (warm) | CCOC(=O)COc1ccc(C=C(C#N)C#N)cc1 [Compound 6] | – | – | – | – |
| Ethanol Acetone | N#CC(C#N)=Cc1ccc(O)cc1 [Compound 7] | – | – | – | – |
| – | N#CC(C#N)=Cc1ccc([N+](=O)[O-])c(O)c1 [Tyrphostin A10] | inhibited IL 12 production | did not show any significant inhibition | did not show any significant inhibition | protection in septic shock (septic shock): protective in septic shock |
| – | N#C/C(=C\c1ccc(O)c(O)c1)C(=O)NCc1ccccc1 [Tyrphostin B42] | inhibited IL 12 production | inhibited T cell proliferation | inhibited T cell proliferation | prevention of growth of leukemic cells (leukemic cells): effective in preventing the growth of leukemic cells |
